“And” between values parts separate entries of the source, which are not always exact repeats. Identical values can stand only once. Toxic doses and inconclusive results are not listed. No stated cut-off is given here; in the data, active means T/C of 150% or more; inactive means T/C below 125%. Square brackets hold non-standard residues; d marks the D form. Peptide text beside a SMILES is read from it. * marks the point of attachment. ξ: configuration not given here. Cbz = O=C(OCc1ccccc1)*; ξM = CSCCC(N)C(=O)O
Tested on: L1210 leukemia ip in BDF1 mice, survival T/C
Assay: NCI In Vivo Anticancer Drug Screen. Data for tumor model L1210 Leukemia (intraperitoneal) in B6D2F1 (BDF1) mice
Conditions: endpoint: mean survival time, higher = longer survival
Procedure, shortened: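 Tumor cells were implanted, animals were treated, and survival was followed. The result divides the treated measurement by the vehicle-control measurement.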

[1] = dose: 100.0 mg/kg/injection, schedule: Q04DX003 (ip), vehicle: saline with Tween-80
[2] = dose: 200.0 mg/kg/injection, schedule: Q04DX003 (ip), vehicle: saline with Tween-80
[3] = dose: 400.0 mg/kg/injection, schedule: Q04DX003 (ip), vehicle: saline with Tween-80
[4] = dose: 100.0 mg/kg/injection, schedule: Q01DX009 (ip), vehicle: Klucel (hydroxypropylcellulose) (HPC)
[5] = dose: 100.0 mg/kg/injection, schedule: Q01DX001 (ip), vehicle: saline
[6] = dose: 200.0 mg/kg/injection, schedule: Q01DX001 (ip), vehicle: saline
[7] = dose: 400.0 mg/kg/injection, schedule: Q01DX001 (ip), vehicle: saline
[8] = dose: 100.0 mg/kg/injection, schedule: Q04DX002 (ip), vehicle: Klucel (hydroxypropylcellulose) (HPC)
[9] = dose: 75.0 mg/kg/injection, schedule: Q01DX001 (ip), vehicle: other
[10] = dose: 150.0 mg/kg/injection, schedule: Q01DX001 (ip), vehicle: other
[11] = dose: 100.0 mg/kg/injection, schedule: Q04DX003 (ip), vehicle: Klucel (hydroxypropylcellulose) (HPC)
[12] = dose: 200.0 mg/kg/injection, schedule: Q04DX003 (ip), vehicle: Klucel (hydroxypropylcellulose) (HPC)
[13] = dose: 400.0 mg/kg/injection, schedule: Q04DX003 (ip), vehicle: Klucel (hydroxypropylcellulose) (HPC)
[14] = dose: 200.0 mg/kg/injection, schedule: Q01DX009 (ip), vehicle: Klucel (hydroxypropylcellulose) (HPC)
[15] = dose: 400.0 mg/kg/injection, schedule: Q01DX009 (ip), vehicle: Klucel (hydroxypropylcellulose) (HPC)
[16] = dose: 100.0 mg/kg/injection, schedule: Q01DX001 (ip), vehicle: carboxymethylcellulose (CMC)
[17] = dose: 200.0 mg/kg/injection, schedule: Q01DX001 (ip), vehicle: carboxymethylcellulose (CMC)
[18] = dose: 400.0 mg/kg/injection, schedule: Q01DX001 (ip), vehicle: carboxymethylcellulose (CMC)

Measured: T/C

CN(Cc1ccccc1)/C(N)=N/N
inactive: dose: 37.5 mg/kg/injection, schedule: Q04DX003 (ip), vehicle: saline 94 % of control | dose: 75.0 mg/kg/injection, schedule: Q04DX003 (ip), vehicle: saline 111 % of control | dose: 150.0 mg/kg/injection, schedule: Q04DX003 (ip), vehicle: saline 97 % of control

CCC[CH2][Pb]([CH2]CCC)([CH2]CCC)[N](C#N)C#N
inactive: dose: 25.0 mg/kg/injection, schedule: Q04DX002 (sc), vehicle: olive oil, sesame oil, peanut oil 101 % of control | dose: 50.0 mg/kg/injection, schedule: Q04DX002 (sc), vehicle: olive oil, sesame oil, peanut oil 101 % of control | dose: 100.0 mg/kg/injection, schedule: Q04DX002 (sc), vehicle: olive oil, sesame oil, peanut oil 96 % of control and 97 % of control

COC(=O)CCN(C(=O)c1ccccc1)c1ccccc1C(=O)OC
inactive: dose: 75.0 mg/kg/injection, schedule: Q01DX001 (ip), vehicle: saline 98 % of control | dose: 150.0 mg/kg/injection, schedule: Q01DX001 (ip), vehicle: saline 93 % of control | dose: 300.0 mg/kg/injection, schedule: Q01DX001 (ip), vehicle: saline 86 % of control

CS(=O)(=O)c1nc(Cl)nc(C(Cl)(Cl)Cl)c1Cl
inactive: dose: 25.0 mg/kg/injection, schedule: Q01DX009 (ip), vehicle: saline with Tween-80 101 % of control | dose: 50.0 mg/kg/injection, schedule: Q01DX009 (ip), vehicle: saline with Tween-80 95 % of control

COC(=O)C1CC(OS(=O)(=O)c2ccc(C)cc2)CN1C(=O)OCc1ccccc1 (stereo not given)
inactive: [1] 102 % of control | [2] 94 % of control | [3] 92 % of control

Nc1[nH]c(=O)ncc1-c1ccc(Cl)cc1
inactive: dose: 50.0 mg/kg/injection, schedule: Q01DX009 (ip), vehicle: Klucel (hydroxypropylcellulose) (HPC) 96 % of control | [4] 100 % of control

COc1ccccc1-n1c(O)c(N=Nc2ccc(Br)cc2)c(=O)n(-c2ccc(Br)cc2)c1=S
inactive: dose: 50.0 mg/kg/injection, schedule: Q01DX001 (ip), vehicle: Klucel (hydroxypropylcellulose) (HPC) 93 % of control | dose: 100.0 mg/kg/injection, schedule: Q01DX001 (ip), vehicle: Klucel (hydroxypropylcellulose) (HPC) 109 % of control | dose: 200.0 mg/kg/injection, schedule: Q01DX001 (ip), vehicle: Klucel (hydroxypropylcellulose) (HPC) 102 % of control

O=S(=O)(Nc1ncccn1)c1ccc(N=Nc2ccc(O)c3ncccc23)cc1
inactive: [5] 100 % of control | [6] 103 % of control | [7] 103 % of control

C=C(Cl)CSc1ccccc1
inactive: [5] 103 % of control | [6] 103 % of control | [7] 105 % of control

Cc1ccc(CSC(=N)N)cc1C
inactive: dose: 25.0 mg/kg/injection, schedule: Q04DX002 (ip), vehicle: Klucel (hydroxypropylcellulose) (HPC) 98 % of control | dose: 50.0 mg/kg/injection, schedule: Q04DX002 (ip), vehicle: Klucel (hydroxypropylcellulose) (HPC) 103 % of control | [8] 101 % of control

CCCN=Cc1ccccc1O.CCCN=Cc1ccccc1O.[Ni]
inactive: [9] 95 % of control | [10] 108 % of control

CCC#CC#CCC
inactive: [5] 97 % of control | dose: 100.0 mg/kg/injection, schedule: Q01DX009 (ip), vehicle: saline 96 % of control | [6] 108 % of control | [7] 112 % of control

O=C(NC(Cc1cn(Cc2ccccc2)cn1)C(=O)O)OCc1ccccc1 (stereo not given)
inactive: [11] 104 % of control | [12] 104 % of control | [13] 97 % of control

OCC1OC(n2c(N3CCCCC3)nc3ccccc32)C(O)C1O (stereo not given)
inactive: [5] 102 % of control | [6] 105 % of control | [7] 105 % of control

C=CC(=O)NC(C)C
inactive: [1] 102 % of control | [2] 104 % of control | [3] 86 % of control

Cc1cc(Cl)ccc1OC(=O)NC1CCCCC1
inactive: [8] 107 % of control | dose: 200.0 mg/kg/injection, schedule: Q04DX002 (ip), vehicle: Klucel (hydroxypropylcellulose) (HPC) 96 % of control | dose: 400.0 mg/kg/injection, schedule: Q04DX002 (ip), vehicle: Klucel (hydroxypropylcellulose) (HPC) 107 % of control

COc1ccc2c(c1O)C13CCN(C)C(C2)C1CCC(O)C3 (stereo not given)
inactive: [4] 95 % of control | [11] 104 % of control | [14] 101 % of control | [12] 88 % of control | [15] 98 % of control | [13] 86 % of control

CC1(C)OC(COC(=O)c2ccccc2)C2OC(C)(C)OC(COC(=O)c3ccccc3)C2O1 (stereo not given)
inactive: [16] 93 % of control | [17] 90 % of control | [18] 95 % of control

COc1cc(N=Nc2ccc([N+](=O)[O-])cc2C)ccc1N
inactive: dose: 100.0 mg/kg/injection, schedule: Q01DX001 (ip), vehicle: other 97 % of control | dose: 200.0 mg/kg/injection, schedule: Q01DX001 (ip), vehicle: other 97 % of control | dose: 400.0 mg/kg/injection, schedule: Q01DX001 (ip), vehicle: other 86 % of control

COC(=O)C(CCSC)NC(=O)CNC(=O)CNC(=O)OCc1ccccc1 (stereo not drawn) (Cbz-Gly-Gly-[ξM]-OMe)
inactive: [1] 106 % of control | [2] 101 % of control | [3] 95 % of control

CC(=O)C1(O)CCC2C3CCC4=CC(=O)CCC4(C)C3CC(=O)C21C (stereo not given)
inactive: [9] 95 % of control | [10] 93 % of control | dose: 300.0 mg/kg/injection, schedule: Q01DX001 (ip), vehicle: other 95 % of control

C(COC1CC2CC1C1C2CC2OC21)OC1CC2CC1C1C2CC2OC21 (stereo not given)
inactive: dose: 50.0 mg/kg/injection, schedule: Q01DX001 (ip), vehicle: carboxymethylcellulose (CMC) 96 % of control | [16] 98 % of control | [17] 96 % of control | [18] 102 % of control

c1ccc(N=Nc2ccc(C3=NCCO3)cc2)cc1
inactive: [4] 91 % of control | dose: 100.0 mg/kg/injection, schedule: Q04DX003 (ip), vehicle: saline 95 % of control | [14] 88 % of control | dose: 200.0 mg/kg/injection, schedule: Q04DX003 (ip), vehicle: saline 101 % of control | [15] 87 % of control | dose: 400.0 mg/kg/injection, schedule: Q04DX003 (ip), vehicle: saline 94 % of control

COc1ccc(/C=N/n2c3ccccc3c3ccccc32)cc1OCCN(C)C
inactive: dose: 3.12 mg/kg/injection, schedule: Q01DX009 (ip), vehicle: Klucel (hydroxypropylcellulose) (HPC) 96 % of control | dose: 6.25 mg/kg/injection, schedule: Q01DX009 (ip), vehicle: Klucel (hydroxypropylcellulose) (HPC) 101 % of control | dose: 12.5 mg/kg/injection, schedule: Q01DX009 (ip), vehicle: Klucel (hydroxypropylcellulose) (HPC) 97 % of control | dose: 25.0 mg/kg/injection, schedule: Q01DX009 (ip), vehicle: Klucel (hydroxypropylcellulose) (HPC) 102 % of control | dose: 25.0 mg/kg/injection, schedule: Q04DX003 (ip), vehicle: Klucel (hydroxypropylcellulose) (HPC) 98 % of control | dose: 50.0 mg/kg/injection, schedule: Q04DX003 (ip), vehicle: Klucel (hydroxypropylcellulose) (HPC) 96 % of control

— PubChem BioAssay AID248 (DTP/NCI, 2004)
